Reference: the supplement of paper PMC10307832

How the values were obtained:
Experiment in all cases: relative viability (nuclei count vs DMSO), 5 days (fraction); higher = more cells survive
NCI-H596 = system: NCI-H596
Method in brief: (§1)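 Nuclei were stained with Hoechst during a one-step fixation (final 0.05% Triton X-100, 1% formaldehyde, 1 ug/ml Hoechst) carried out 5 days after dosing, then counted on 4× images. The cells, lung cancer lines in 1536-well plates, had been dosed by pin tool the day after seeding with one drug alone or a fixed anchor-drug dose plus five library-drug doses (not always all listed) in √10 steps. Relative viability is the nuclei count in treated wells divided by that in vehicle wells, and each value is the median of duplicate plates.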

LU99A = system: LU99A
Method in brief: as §1

SW 1573 = system: SW 1573
Method in brief: as §1

NCI-H1793 = system: NCI-H1793
Method in brief: as §1

NCI-H727 = system: NCI-H727
Method in brief: as §1

NCI-H2170 = system: NCI-H2170
Method in brief: as §1

HOP-62 = system: HOP-62
Method in brief: as §1

NCI-H2228 = system: NCI-H2228
Method in brief: as §1

SK-LU-1 = system: SK-LU-1
Method in brief: as §1

HARA = system: HARA
Method in brief: as §1

NCI-H3122 = system: NCI-H3122
Method in brief: as §1

COR-L23 = system: COR-L23
Method in brief: as §1

A-427 = system: A-427
Method in brief: as §1

NCI-H1993 = system: NCI-H1993
Method in brief: as §1

LXF-289 = system: LXF-289
Method in brief: as §1

NCI-H1944 = system: NCI-H1944
Method in brief: as §1

SW 900 = system: SW 900
Method in brief: as §1

EMC-BAC-2 = system: EMC-BAC-2
Method in brief: as §1

SK-MES-1 = system: SK-MES-1
Method in brief: as §1

LK-2 = system: LK-2
Method in brief: as §1

ABC-1 = system: ABC-1
Method in brief: as §1

NCI-H2009 = system: NCI-H2009
Method in brief: as §1

PC-3 [JPC-3] = system: PC-3 [JPC-3]
Method in brief: as §1

## COc1cc(N2CCC(C(N)=O)CC2)ccc1Nc1nc(N)c(Cl)c(Nc2ccccc2S(=O)(=O)C(C)C)n1 [HG-5-88-01] + Cc1cc(Nc2cc(N3CCN(C)CC3)nc(Sc3ccc(NC(=O)C4CC4)cc3)n2)n[nH]1 [Tozasertib] (partner 0.1 µM)
NCI-H596; first compound 0.04 µM
  relative viability: 0.955
NCI-H596; first compound 0.1265 µM
  relative viability: 0.907
NCI-H596; first compound 0.4 µM
  relative viability: 0.877
NCI-H596; first compound 1.265 µM
  relative viability: 1.09
NCI-H596; first compound 4 µM
  relative viability: 1
LU99A; first compound 0.04 µM
  relative viability: 0.29
LU99A; first compound 0.1265 µM
  relative viability: 0.301
LU99A; first compound 0.4 µM
  relative viability: 0.264
LU99A; first compound 1.265 µM
  relative viability: 0.267
LU99A; first compound 4 µM
  relative viability: 0.266
SW 1573; first compound 0.04 µM
  relative viability: 0.169
SW 1573; first compound 0.1265 µM
  relative viability: 0.128
SW 1573; first compound 0.4 µM
  relative viability: 0.166
SW 1573; first compound 1.265 µM
  relative viability: 0.157
SW 1573; first compound 4 µM
  relative viability: 0.162
NCI-H1793; first compound 0.1265 µM
  relative viability: 0.313
NCI-H1793; first compound 0.4 µM
  relative viability: 0.293
NCI-H1793; first compound 4 µM
  relative viability: 0.216
NCI-H727; first compound 0.04 µM
  relative viability: 0.594
NCI-H727; first compound 0.1265 µM
  relative viability: 0.665
NCI-H727; first compound 0.4 µM
  relative viability: 0.582
NCI-H727; first compound 1.265 µM
  relative viability: 0.429
NCI-H727; first compound 4 µM
  relative viability: 0.429
NCI-H2170; first compound 0.04 µM
  relative viability: 0.768
NCI-H2170; first compound 0.1265 µM
  relative viability: 0.67
NCI-H2170; first compound 0.4 µM
  relative viability: 0.678
NCI-H2170; first compound 1.265 µM
  relative viability: 0.464
NCI-H2170; first compound 4 µM
  relative viability: 0.635
HOP-62; first compound 0.04 µM
  relative viability: 0.357
HOP-62; first compound 0.1265 µM
  relative viability: 0.359
HOP-62; first compound 0.4 µM
  relative viability: 0.307
HOP-62; first compound 1.265 µM
  relative viability: 0.327
HOP-62; first compound 4 µM
  relative viability: 0.334
NCI-H2228; first compound 0.04 µM
  relative viability: 0.259
NCI-H2228; first compound 0.1265 µM
  relative viability: 0.13
NCI-H2228; first compound 0.4 µM
  relative viability: 0.159
NCI-H2228; first compound 1.265 µM
  relative viability: 0.111
NCI-H2228; first compound 4 µM
  relative viability: 0.133
SK-LU-1; first compound 0.04 µM
  relative viability: 0.337
SK-LU-1; first compound 0.1265 µM
  relative viability: 0.311
SK-LU-1; first compound 0.4 µM
  relative viability: 0.298
SK-LU-1; first compound 1.265 µM
  relative viability: 0.228
SK-LU-1; first compound 4 µM
  relative viability: 0.189
HARA; first compound 0.04 µM
  relative viability: 0.108
HARA; first compound 0.1265 µM
  relative viability: 0.132
HARA; first compound 0.4 µM
  relative viability: 0.0858
HARA; first compound 1.265 µM
  relative viability: 0.099
HARA; first compound 4 µM
  relative viability: 0.0727
NCI-H3122; first compound 0.04 µM
  relative viability: 0.221
NCI-H3122; first compound 0.1265 µM
  relative viability: 0.146
NCI-H3122; first compound 0.4 µM
  relative viability: 0.08
NCI-H3122; first compound 1.265 µM
  relative viability: 0.112
NCI-H3122; first compound 4 µM
  relative viability: 0.0832
COR-L23; first compound 0.04 µM
  relative viability: 0.202
COR-L23; first compound 0.1265 µM
  relative viability: 0.196
COR-L23; first compound 0.4 µM
  relative viability: 0.168
COR-L23; first compound 1.265 µM
  relative viability: 0.165
COR-L23; first compound 4 µM
  relative viability: 0.109
A-427; first compound 0.04 µM
  relative viability: 0.193
A-427; first compound 0.1265 µM
  relative viability: 0.208
A-427; first compound 0.4 µM
  relative viability: 0.158
A-427; first compound 1.265 µM
  relative viability: 0.184
A-427; first compound 4 µM
  relative viability: 0.18
NCI-H1993; first compound 0.04 µM
  relative viability: 0.607
NCI-H1993; first compound 0.1265 µM
  relative viability: 0.635
NCI-H1993; first compound 0.4 µM
  relative viability: 0.595
NCI-H1993; first compound 1.265 µM
  relative viability: 0.556
NCI-H1993; first compound 4 µM
  relative viability: 0.535
LXF-289; first compound 0.04 µM
  relative viability: 0.156
LXF-289; first compound 0.1265 µM
  relative viability: 0.179
LXF-289; first compound 0.4 µM
  relative viability: 0.185
LXF-289; first compound 1.265 µM
  relative viability: 0.196
LXF-289; first compound 4 µM
  relative viability: 0.0786
NCI-H1944; first compound 0.04 µM
  relative viability: 0.268
NCI-H1944; first compound 0.1265 µM
  relative viability: 0.274
NCI-H1944; first compound 0.4 µM
  relative viability: 0.261
NCI-H1944; first compound 1.265 µM
  relative viability: 0.239
NCI-H1944; first compound 4 µM
  relative viability: 0.235
SW 900; first compound 0.04 µM
  relative viability: 0.533
SW 900; first compound 0.1265 µM
  relative viability: 0.656
SW 900; first compound 0.4 µM
  relative viability: 0.652
SW 900; first compound 1.265 µM
  relative viability: 0.417
SW 900; first compound 4 µM
  relative viability: 0.268
EMC-BAC-2; first compound 0.04 µM
  relative viability: 0.296
EMC-BAC-2; first compound 0.1265 µM
  relative viability: 0.288
EMC-BAC-2; first compound 0.4 µM
  relative viability: 0.261
EMC-BAC-2; first compound 1.265 µM
  relative viability: 0.264
EMC-BAC-2; first compound 4 µM
  relative viability: 0.24
SK-MES-1; first compound 0.04 µM
  relative viability: 0.843
SK-MES-1; first compound 0.1265 µM
  relative viability: 0.909
SK-MES-1; first compound 0.4 µM
  relative viability: 0.833
SK-MES-1; first compound 1.265 µM
  relative viability: 0.579
SK-MES-1; first compound 4 µM
  relative viability: 0.158
LK-2; first compound 0.04 µM
  relative viability: 0.171
LK-2; first compound 0.1265 µM
  relative viability: 0.18
LK-2; first compound 0.4 µM
  relative viability: 0.14
LK-2; first compound 1.265 µM
  relative viability: 0.18
LK-2; first compound 4 µM
  relative viability: 0.16
ABC-1; first compound 0.04 µM
  relative viability: 0.15
ABC-1; first compound 0.1265 µM
  relative viability: 0.204
ABC-1; first compound 0.4 µM
  relative viability: 0.172
ABC-1; first compound 1.265 µM
  relative viability: 0.154
ABC-1; first compound 4 µM
  relative viability: 0.179
NCI-H2009; first compound 0.04 µM
  relative viability: 0.734
NCI-H2009; first compound 0.1265 µM
  relative viability: 0.753
NCI-H2009; first compound 0.4 µM
  relative viability: 0.611
NCI-H2009; first compound 1.265 µM
  relative viability: 0.578
NCI-H2009; first compound 4 µM
  relative viability: 0.451
PC-3 [JPC-3]; first compound 0.04 µM
  relative viability: 0.954
PC-3 [JPC-3]; first compound 0.1265 µM
  relative viability: 0.825
PC-3 [JPC-3]; first compound 0.4 µM
  relative viability: 0.882
PC-3 [JPC-3]; first compound 1.265 µM
  relative viability: 0.863
PC-3 [JPC-3]; first compound 4 µM
  relative viability: 0.702
